Experimental findings from patent publication US8012980B2, “Isoquinolinone derivatives” (AstraZeneca AB, priority 2008, dated 2011) are described below.

The target in this assay is T1, human active recombinant p38 (p38α) (Homo sapiens, UniProt Q16539).
T1 construct: 6His
The assay is described as follows: p38 Alpha Enzyme Assay (AlphaScreen, biotinylated-ATF2 substrate). The class given is biochemical. The following applies: means of replicate determinations, pre-incubated for 4 hours at 37° C., SD of assay between 0.2 and 0.3 log units; for IC50: read-out: p38α inhibition Mean pIC50 (converted). As for the experimental part:
The ability of the compounds of formula (I) to inhibit p38 kinase may be determined using the following biological assay:
Enzyme assays were performed in polypropylene 96 well plates. The following solutions were added to each well; 10 μL of compound dilutions in assay buffer (20 mM HEPES pH 7.4, containing 20 mM magnesium acetate, 0.005% (w/v) Tween-20, 10 mM DTT) containing 1% (v/v) DMSO or assay buffer containing 1% (v/v) DMSO alone, 70 μL of assay buffer containing 36 nM substrate (biotinylated-ATF2) and 10 μL of an appropriate dilution of human active recombinant p38-6H is tagged. Depending on batch of p38, an appropriate dilution was typically a 5 nM solution to give a final enzyme concentration of 0.5 nM. At this stage, background control wells also received 50 μL of AlphaScreen quench buffer (10 mM HEPES pH 7.4 containing 100 mM EDTA, 0.2% (w/v) bovine serum albumin). The plate was covered, pre-incubated for 4 hours at 37° C. and the enzyme reaction initiated by addition of 10 μL 1 mM ATP. After incubation for a further 45 minutes at 37° C., the reaction was stopped by addition of 50 μL quench reagent and 50 μL of the quenched reaction mixture transferred to an opaque, white 96-well plate. Detection reagent, 25 μL of 10 mM HEPES pH 7.4 containing 100 mM EDTA, 0.2% (w/v) bovine serum albumin, 0.3 nM anti phosphoATF2 antibody and 25 μg/mL of AlphaScreen protein A acceptor and donor beads' (PerkinElmer Inc.), was added to all wells in a darkened room, the plate sealed and left in the dark for at least 5 hours before AlphaScreen readings were taken using a Perkin Elmer EnVision reader. Total, uninhibited activity was determined from assays performed in each assay plate. The mean control in the absence of p38 activity was subtracted from each well. Data were expressed as percent inhibition of total activity using equation 1. Percent Inhibition=100*(1−Test/Control) Eq.1 Where . . . Test=p38 kinase activity in the presence of compound Control=p38 kinase activity in the absence of compound.
pIC50 is defined as the logarithm of the reciprocal of the concentration of compound required for 50% reduction in total p38 kinase activity.
The standard deviation of the p38 enzyme inhibition assay is between 0.2 and 0.3 log units.
A general note: Alpha assays give light when donor and acceptor beads are brought close together.

T1 sequence (Q16539 whole entry): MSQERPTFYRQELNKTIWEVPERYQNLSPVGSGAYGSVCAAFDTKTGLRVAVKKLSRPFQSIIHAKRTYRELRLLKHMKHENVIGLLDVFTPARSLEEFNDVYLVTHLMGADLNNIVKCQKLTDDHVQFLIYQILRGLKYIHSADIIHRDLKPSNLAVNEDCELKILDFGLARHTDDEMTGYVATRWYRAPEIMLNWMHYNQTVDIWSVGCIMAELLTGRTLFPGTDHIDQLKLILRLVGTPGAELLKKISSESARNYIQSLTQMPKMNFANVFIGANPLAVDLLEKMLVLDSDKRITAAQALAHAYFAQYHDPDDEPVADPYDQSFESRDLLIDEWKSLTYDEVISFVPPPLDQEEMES

On to `Cc1c(F)cc(C(=O)NC2CC2)cc1-c1ccc2c(=O)n(CC3(CO)CCC3)cc(CN3CCNCC3)c2c1` [Example 27, N-Cyclopropyl-3-fluoro-5-[2-{[1-(hydroxymethyl)cyclobutyl]methyl}-1-oxo-4-(piperazin-1-ylmethyl)-1,2-dihydroisoquinolin-6-yl]-4-methylbenzamide], for which the IC50 was 0.316 nM. On the same count and under the same terms, next, `Cc1c(F)cc(C(=O)NC2CC2)cc1-c1ccc2c(=O)n(CC3(CO)CC3)cc(CN3CCNC[C@H]3C)c2c1` [Example 33, N-Cyclopropyl-3-fluoro-5-(2-{[1-(hydroxymethyl)cyclopropyl]methyl}-4-{[(2R)-2-methylpiperazin-1-yl]methyl}-1-oxo-1,2-dihydroisoquinolin-6-yl)-4-methylbenzamide]: 0.158 nM; `Cc1c(F)cc(C(=O)NC2CC2)cc1-c1ccc2c(=O)n(CC(C)(C)CO)cc(S(=O)(=O)C3CCNCC3)c2c1` [Example 60, N-Cyclopropyl-3-fluoro-5-[2-(3-hydroxy-2,2-dimethylpropyl)-1-oxo-4-(piperidin-4-ylsulfonyl)-1,2-dihydroisoquinolin-6-yl]-4-methylbenzamide]: 0.398 nM. For the compound `Cc1c(F)cc(C(=O)NC2CC2)cc1-c1ccc2c(=O)n(CCO)cc(CN3CCN[C@@H](C)C3)c2c1` [Example 6], the IC50 is 1 nM.

On to “N-Cyclopropyl-3-fluoro-5-(2-[2-(hydroxymethyl)-2-methylbutyl]-4-{[(3S)-3-methylpiperazin-1-yl]methyl}-1-oxo-1,2-dihydroisoquinolin-6-yl)-4-methylbenzamide [Example 37]”, for which the “p38α inhibition Mean pIC50” value worked out at 9.5. As to `Cc1c(F)cc(C(=O)NC2CC2)cc1-c1ccc2c(=O)n(CC(C)(C)CO)cc(CN3CCC[C@H](N)C3)c2c1` [Example 25, 3-[4-{[(3S)-3-Aminopiperidin-1-yl]methyl}-2-(3-hydroxy-2,2-dimethylpropyl)-1-oxo-1,2-dihydroisoquinolin-6-yl]-N-cyclopropyl-5-fluoro-4-methylbenzamide], the “p38α inhibition Mean pIC50” value is 8.8. As for `Cc1c(F)cc(C(=O)NC2CC2)cc1-c1ccc2c(=O)n(CCCO)cc(CN3CCN[C@H](CO)C3)c2c1` [Example 3, N-Cyclopropyl-3-fluoro-5-(4-(((3S)-3-(hydroxymethyl)piperazin-1-yl)methyl)-2-(3-hydroxypropyl)-1-oxo-1,2-dihydroisoquinolin-6-yl)-4-methylbenzamide], the IC50 was 0.158 nM. Same read-out and setting: in the case of `Cc1c(F)cc(C(=O)NC2CC2)cc1-c1ccc2c(=O)n(CCO)cc(CN3CCCN(C)CC3)c2c1` [Example 7, N-Cyclopropyl-3-fluoro-5-(2-(2-hydroxyethyl)-4-((4-methyl-1,4-diazepan-1-yl)methyl)-1-oxo-1,2-dihydroisoquinolin-6-yl)-4-methylbenzamide] it was 0.501 nM; in that of `Cc1c(F)cc(C(=O)NC2CC2)cc1-c1ccc2c(=O)n(CC3(CO)CC3)cc(CN3CCN[C@@H](C)C3)c2c1` [Example 34, N-Cyclopropyl-3-fluoro-5-(2-{[1-(hydroxymethyl)cyclopropyl]methyl}-4-{[(3S)-3-methylpiperazin-1-yl]methyl}-1-oxo-1,2-dihydroisoquinolin-6-yl)-4-methylbenzamide], 1 nM.

In the case of `Cc1c(F)cc(C(=O)NC2CC2)cc1-c1ccc2c(=O)n(CC3(CO)CC3)cc(CN3CCN[C@@H](CO)C3)c2c1` [Example 12, N-Cyclopropyl-3-fluoro-5-(2-((1-(hydroxymethyl)cyclopropyl)methyl)-4-(((3R)-3-(hydroxymethyl)piperazin-1-yl)methyl)-1-oxo-1,2-dihydroisoquinolin-6-yl)-4-methylbenzamide], the IC50 is 0.398 nM. As for `Cc1c(F)cc(C(=O)NC2CC2)cc1-c1ccc2c(=O)n(CC(C)(C)CO)cc(S(=O)(=O)N3CC[C@@H](N)C3)c2c1` [Example 54, 3-[4-{[(3R)-3-Aminopyrrolidin-1-yl]sulfonyl}-2-(3-hydroxy-2,2-dimethylpropyl)-1-oxo-1,2-dihydroisoquinolin-6-yl]-N-cyclopropyl-5-fluoro-4-methylbenzamide], the IC50 was 0.251 nM.

For `Cc1c(F)cc(C(=O)NC2CC2)cc1-c1ccc2c(=O)n(CC(C)(C)CO)cc(S(=O)(=O)N3CC[C@H](N)C3)c2c1` [Example 53, 3-[4-{[(3S)-3-Aminopyrrolidin-1-yl]sulfonyl}-2-(3-hydroxy-2,2-dimethylpropyl)-1-oxo-1,2-dihydroisoquinolin-6-yl]-N-cyclopropyl-5-fluoro-4-methylbenzamide], the IC50 was 0.398 nM. Regarding `Cc1c(F)cc(C(=O)NC2CC2)cc1-c1ccc2c(=O)n(CC(C)(C)CO)cc(C(C)N3CCNCC3)c2c1` (single isomer, unassigned) [Example 40, N-Cyclopropyl-3-fluoro-5-[2-(3-hydroxy-2,2-dimethylpropyl)-1-oxo-4-(1-piperazin-1-ylethyl)-1,2-dihydroisoquinolin-6-yl]-4-methylbenzamide], the IC50 was 0.0794 nM. Same read-out and setting: in the case of `Cc1c(F)cc(C(=O)NC2CC2)cc1-c1ccc2c(=O)n(CC(C)(C)CO)cc(SC3CCNCC3)c2c1` [Example 58, N-Cyclopropyl-3-fluoro-5-[2-(3-hydroxy-2,2-dimethylpropyl)-1-oxo-4-(piperidin-4-ylsulfanyl)-1,2-dihydroisoquinolin-6-yl]-4-methylbenzamide] it was 0.316 nM; in that of `Cc1c(F)cc(C(=O)NC2CC2)cc1-c1ccc2c(=O)n(CC3CC3)cc(S(=O)(=O)N3CCNCC3)c2c1` [Example 47, N-Cyclopropyl-3-[2-(cyclopropylmethyl)-1-oxo-4-(piperazin-1-ylsulfonyl)-1,2-dihydroisoquinolin-6-yl]-5-fluoro-4-methylbenzamide], 0.251 nM. On the same count and under the same terms, next, `Cc1c(F)cc(C(=O)NC2CC2)cc1-c1ccc2c(=O)n(CC(C)(C)CO)cc(S[C@H]3CCN[C@H](CO)C3)c2c1` [Example 67, N-Cyclopropyl-3-fluoro-5-[2-(3-hydroxy-2,2-dimethylpropyl)-4-{[(2S,4S)-2-(hydroxymethyl)piperidin-4-yl]sulfanyl}-1-oxo-1,2-dihydroisoquinolin-6-yl]-4-methylbenzamide]: 0.251 nM; `Cc1c(F)cc(C(=O)NC2CC2)cc1-c1ccc2c(=O)n(C[C@H](C)CO)cc(CN3CCNCC3)c2c1` [Example 18, N-Cyclopropyl-3-fluoro-5-{2-[(2S)-3-hydroxy-2-methylpropyl]-1-oxo-4-(piperazin-1-ylmethyl)-1,2-dihydroisoquinolin-6-yl}-4-methylbenzamide]: 0.794 nM.

As to `Cc1c(F)cc(C(=O)NC2CC2)cc1-c1ccc2c(=O)n(CC(C)(C)CO)cc(S(=O)(=O)NCCN(C)C)c2c1` [Example 56, N-cyclopropyl-3-[4-{[2-(dimethylamino)ethyl]sulfamoyl}-2-(3-hydroxy-2,2-dimethylpropyl)-1-oxo-1,2-dihydroisoquinolin-6-yl]-5-fluoro-4-methylbenzamide], the IC50 was 0.794 nM. For the compound `Cc1c(F)cc(C(=O)NC2CC2)cc1-c1ccc2c(=O)n(CC(C)(C)CO)cc(CN3CCN[C@H](CO)C3)c2c1` [Example 17, N-Cyclopropyl-3-fluoro-5-(2-(3-hydroxy-2,2-dimethylpropyl)-4-(((3S)-3-(hydroxymethyl)piperazin-1-yl)methyl)-1-oxo-1,2-dihydroisoquinolin-6-yl)-4-methylbenzamide], the “p38α inhibition Mean pIC50” value came to 9.6. As for `Cc1c(F)cc(C(=O)NC2CC2)cc1-c1ccc2c(=O)n(CC(C)(C)CO)cc(C(C)N3CCC(C)(N)CC3)c2c1` (stereo not shown) [Example 41, 3-{4-[1-(4-Amino-4-methylpiperidin-1-yl)ethyl]-2-(3-hydroxy-2,2-dimethylpropyl)-1-oxo-1,2-dihydroisoquinolin-6-yl}-N-cyclopropyl-5-fluoro-4-methylbenzamide], the IC50 is 0.631 nM. On the same count and under the same terms, next, `Cc1c(F)cc(C(=O)NC2CC2)cc1-c1ccc2c(=O)n(CC(C)(CO)CO)cc(SC3CCNCC3)c2c1` [Example 66, N-Cyclopropyl-3-fluoro-5-{2-[3-hydroxy-2-(hydroxymethyl)-2-methylpropyl]-1-oxo-4-(piperidin-4-ylsulfanyl)-1,2-dihydroisoquinolin-6-yl}-4-methylbenzamide]: 0.2 nM; `Cc1c(F)cc(C(=O)NC2CC2)cc1-c1ccc2c(=O)n(CC3(CO)CC3)cc(S(=O)(=O)N3CCCNCC3)c2c1` [Example 57]: 0.158 nM.
